Source: ChEMBL document CHEMBL1152457, “Antimicrobial drug resistance of Salmonella enterica serovar typhi in asia and molecular mechanism of reduced susceptibility to the fluoroquinolones” (2007)
Values after ≈ are worked out from the molar mass of the structure shown. Active and inactive are the calls of the source. The calls are words filed in the database; no cut-off is given here.

Experiments:
[1] = system: Salmonella enterica subsp. enterica; experiment: Antimicrobial activity against multidrug-resistant Salmonella enterica Serovar Typhi isolate B111 harboring DNA gyrase A S83Y mutation by disk diffusion method in presence of plasmid mediated quinolone-resistant gene qnrA and qnrS; type: functional, Salmonella enterica subsp. enterica serovar Typhi
[2] = system: Salmonella enterica subsp. enterica; experiment: Antimicrobial activity against Salmonella enterica Serovar Typhi isolate E86 harboring DNA gyrase A S83F mutation by disk diffusion method in presence of plasmid mediated quinolone-resistant gene qnrA and qnrS; type: functional, Salmonella enterica subsp. enterica serovar Typhi
[3] = system: Salmonella enterica subsp. enterica; experiment: Antimicrobial activity against multidrug-resistant Salmonella enterica Serovar Typhi isolate nar 107 harboring DNA gyrase A S83F mutation by disk diffusion method in presence of plasmid mediated quinolone-resistant gene qnrA and qnrS; type: functional, Salmonella enterica subsp. enterica serovar Typhi
[4] = system: Salmonella enterica subsp. enterica; experiment: Antimicrobial activity against multidrug-resistant Salmonella enterica Serovar Typhi isolate nar 28 harboring DNA gyrase A S83F mutation by disk diffusion method; type: functional, Salmonella enterica subsp. enterica serovar Typhi
[5] = system: Salmonella enterica subsp. enterica; experiment: Antimicrobial activity against multidrug-resistant Salmonella enterica Serovar Typhi isolate nar 46 harboring DNA gyrase A D87G mutation by disk diffusion method; type: functional, Salmonella enterica subsp. enterica serovar Typhi
[6] = system: Salmonella enterica subsp. enterica; experiment: Antimicrobial activity against Salmonella enterica Serovar Typhi isolate CT145 harboring DNA gyrase A S83F mutation by disk diffusion method in presence of plasmid mediated quinolone-resistant gene qnrA and qnrS; type: functional, Salmonella enterica subsp. enterica serovar Typhi
[7] = system: Salmonella enterica subsp. enterica; experiment: Antimicrobial activity against multidrug-resistant Salmonella enterica Serovar Typhi isolate DT15 harboring DNA gyrase A S83F mutation by disk diffusion method; type: functional, Salmonella enterica subsp. enterica serovar Typhi
[8] = system: Salmonella enterica subsp. enterica; experiment: Antimicrobial activity against multidrug-resistant Salmonella enterica Serovar Typhi isolate DT37 harboring DNA gyrase A S83F mutation by disk diffusion method; type: functional, Salmonella enterica subsp. enterica serovar Typhi
[9] = system: Salmonella enterica subsp. enterica; experiment: Antimicrobial activity against multidrug-resistant Salmonella enterica Serovar Typhi isolate DT42 harboring DNA gyrase A S83F mutation by disk diffusion method; type: functional, Salmonella enterica subsp. enterica serovar Typhi
[10] = system: Salmonella enterica subsp. enterica; experiment: Antimicrobial activity against multidrug-resistant Salmonella enterica Serovar Typhi isolate DT47 harboring DNA gyrase A S83F mutation by disk diffusion method in presence of plasmid mediated quinolone-resistant gene qnrA and qnrS; type: functional, Salmonella enterica subsp. enterica serovar Typhi
[11] = system: Salmonella enterica subsp. enterica; experiment: Antimicrobial activity against Salmonella enterica Serovar Typhi isolate AG182 harboring DNA gyrase A S83F mutation by disk diffusion method; type: functional, Salmonella enterica subsp. enterica serovar Typhi
[12] = system: Salmonella enterica subsp. enterica; experiment: Antimicrobial activity against Salmonella enterica Serovar Typhi isolate AG259 harboring DNA gyrase A S83F mutation by disk diffusion method in presence of plasmid mediated quinolone-resistant gene qnrA and qnrS; type: functional, Salmonella enterica subsp. enterica serovar Typhi
[13] = system: Salmonella enterica subsp. enterica; experiment: Antimicrobial activity against Salmonella enterica Serovar Typhi isolate BL 21801 harboring DNA gyrase A S83F mutation by disk diffusion method in presence of plasmid mediated quinolone-resistant gene qnrA and qnrS; type: functional, Salmonella enterica subsp. enterica serovar Typhi
[14] = system: Salmonella enterica subsp. enterica; experiment: Antimicrobial activity against multidrug-resistant Salmonella enterica Serovar Typhi isolate BL 21095 harboring DNA gyrase A S83F mutation by disk diffusion method in presence of plasmid mediated quinolone-resistant gene qnrA and qnrS; type: functional, Salmonella enterica subsp. enterica serovar Typhi
[15] = system: Salmonella enterica subsp. enterica; experiment: Antimicrobial activity against multidrug-resistant Salmonella enterica Serovar Typhi isolate DT18 harboring DNA gyrase A S83F and D87G mutation assessed as decrease in viable count at 8 times MIC after 4 hrs by time-kill analysis; type: functional, organism-based
[16] = system: Salmonella enterica subsp. enterica; experiment: Antimicrobial activity against multidrug-resistant Salmonella enterica Serovar Typhi isolate DT18 harboring DNA gyrase A S83F and D87G mutation assessed as decrease in viable count at 16 times MIC after 4 hrs by time-kill analysis; type: functional, organism-based
[17] = system: Salmonella enterica subsp. enterica; experiment: Antimicrobial activity against Salmonella enterica Serovar Typhi isolate AG3 harboring DNA gyrase A S83F mutation by disk diffusion method; type: functional, Salmonella enterica subsp. enterica serovar Typhi
[18] = system: Salmonella enterica subsp. enterica; experiment: Antimicrobial activity against Salmonella enterica Serovar Typhi isolate CT76 harboring wild type DNA gyrase A assessed as decrease in bacterial population at 4 times MIC after 30 mins by time-kill analysis; type: functional, organism-based
[19] = system: Salmonella enterica subsp. enterica; experiment: Antimicrobial activity against multidrug-resistant Salmonella enterica Serovar Typhi isolate HTD 798 harboring DNA gyrase A S83F mutation assessed as decrease in bacterial population at 4 times MIC after 30 mins by time-kill analysis; type: functional, organism-based
[20] = system: Salmonella enterica subsp. enterica; experiment: Antimicrobial activity against Salmonella enterica Serovar Typhi isolate CT144 harboring DNA gyrase A D87G mutation assessed as decrease in bacterial population at 4 times MIC after 30 mins by time-kill analysis; type: functional, organism-based
[21] = system: Salmonella enterica subsp. enterica; experiment: Antimicrobial activity against Salmonella enterica Serovar Typhi isolate CT76 harboring wild type DNA gyrase A assessed as complete cell killing at 4 times MIC after 6 hrs by time-kill analysis; type: functional, organism-based
[22] = system: Salmonella enterica subsp. enterica; experiment: Antimicrobial activity against multidrug-resistant Salmonella enterica Serovar Typhi isolate HTD 798 harboring DNA gyrase A S83F mutation assessed as complete cell killing at 4 times MIC after 6 hrs by time-kill analysis; type: functional, organism-based
[23] = system: Salmonella enterica subsp. enterica; experiment: Antimicrobial activity against Salmonella enterica Serovar Typhi isolate CT144 harboring DNA gyrase A D87G mutation assessed as complete cell killing at 4 times MIC after 6 hrs by time-kill analysis; type: functional, organism-based
[24] = system: Salmonella enterica subsp. enterica; experiment: Antimicrobial activity against multidrug-resistant Salmonella enterica Serovar Typhi isolate HTD 798 harboring DNA gyrase A S83F mutation assessed as complete cell killing at 4 times MIC after 4 hrs by time-kill analysis; type: functional, organism-based
[25] = system: Salmonella enterica subsp. enterica; experiment: Antimicrobial activity against Salmonella enterica Serovar Typhi isolate CT144 harboring DNA gyrase A D87G mutation assessed as complete cell killing at 4 times MIC after 4 hrs by time-kill analysis; type: functional, organism-based
[26] = system: Salmonella enterica subsp. enterica; experiment: Antimicrobial activity against Salmonella enterica Serovar Typhi isolate CT76 harboring wild type DNA gyrase A by time-kill analysis; type: functional, organism-based
[27] = system: Salmonella enterica subsp. enterica; experiment: Antimicrobial activity against multidrug-resistant Salmonella enterica Serovar Typhi isolate HTD 798 harboring DNA gyrase A S83F mutation assessed as decrease in viable count at 4 times MIC after 4 hrs by time-kill analysis; type: functional, organism-based
[28] = system: Salmonella enterica subsp. enterica; experiment: Antimicrobial activity against Salmonella enterica Serovar Typhi isolate CT144 harboring DNA gyrase A D87G mutation assessed as decrease in viable count at 4 times MIC after 4 hrs by time-kill analysis; type: functional, organism-based
[29] = system: Salmonella enterica subsp. enterica; experiment: Antimicrobial activity against multidrug-resistant Salmonella enterica Serovar Typhi isolate DT18 harboring DNA gyrase A S83F and D87G mutation assessed as decrease in viable count at 4 times MIC after 4 hrs by time-kill analysis; type: functional, organism-based

O=C(O)c1cn(C2CC2)c2cc(N3CCNCC3)c(F)cc2c1=O [CIPROFLOXACIN]
MIC [1]: 0.25 µg/mL | MIC [2]: 0.25 µg/mL | MIC [3]: 0.25 µg/mL | MIC [4]: 0.5 µg/mL (≈ 1.51 µM) | MIC [5]: 0.06 µg/mL (≈ 0.181 µM) | MIC [6]: 0.38 µg/mL | MIC [7]: 0.5 µg/mL (≈ 1.51 µM) | MIC [8]: 0.5 µg/mL (≈ 1.51 µM) | MIC [9]: 0.5 µg/mL (≈ 1.51 µM) | MIC [10]: 0.5 µg/mL | MIC [11]: 0.38 µg/mL (≈ 1.15 µM) | MIC [12]: 0.38 µg/mL | MIC [13]: 0.25 µg/mL | MIC [14]: 0.25 µg/mL

COc1c(N2CCNC(C)C2)c(F)cc2c(=O)c(C(=O)O)cn(C3CC3)c12 (stereo not drawn) [GATIFLOXACIN]
Activity [15]: Active | Activity [16]: Active | MIC [1]: 0.19 µg/mL | MIC [2]: 0.19 µg/mL | MIC [3]: 0.125 µg/mL | MIC [4]: 0.19 µg/mL (≈ 0.506 µM) | MIC [5]: 0.032 µg/mL (≈ 0.0852 µM) | MIC [6]: 0.094 µg/mL | MIC [7]: 0.094 µg/mL (≈ 0.25 µM) | MIC [8]: 0.125 µg/mL (≈ 0.333 µM) | MIC [9]: 0.125 µg/mL (≈ 0.333 µM) | MIC [10]: 0.125 µg/mL | MIC [17]: 0.25 µg/mL (≈ 0.666 µM) | MIC [11]: 0.13 µg/mL (≈ 0.346 µM) | MIC [12]: 0.13 µg/mL | MIC [13]: 0.19 µg/mL | MIC [14]: 0.19 µg/mL | Activity [18]: Active | Activity [19]: Active | Activity [20]: Active | Activity [21]: Active | Activity [22]: Active | Activity [23]: Active

CCn1cc(C(=O)O)c(=O)c2ccc(C)nc21 [NALIDIXIC ACID]
MIC [1]: > 256 µg/mL | MIC [2]: > 256 µg/mL | MIC [3]: 256 µg/mL | MIC [4]: 256 µg/mL (≈ 1100 µM) | MIC [5]: 64 µg/mL (≈ 276 µM) | MIC [6]: 128 µg/mL | MIC [7]: > 256 µg/mL | MIC [8]: > 256 µg/mL | MIC [9]: > 256 µg/mL | MIC [10]: 128 µg/mL | MIC [17]: > 256 µg/mL | MIC [11]: > 256 µg/mL | MIC [12]: > 256 µg/mL | MIC [13]: > 256 µg/mL | MIC [14]: > 256 µg/mL

CC1COc2c(N3CCN(C)CC3)c(F)cc3c(=O)c(C(=O)O)cn1c23 (stereo not drawn) [OFLOXACIN]
Activity [24]: inactive | Activity [25]: inactive | MIC [1]: 0.5 µg/mL | MIC [2]: 0.5 µg/mL | MIC [3]: 1 µg/mL | MIC [4]: 1 µg/mL (≈ 2.77 µM) | MIC [5]: 0.5 µg/mL (≈ 1.38 µM) | MIC [6]: 0.5 µg/mL | MIC [7]: 1 µg/mL (≈ 2.77 µM) | MIC [8]: 1 µg/mL (≈ 2.77 µM) | MIC [9]: 1 µg/mL (≈ 2.77 µM) | MIC [10]: 1 µg/mL | MIC [17]: 2 µg/mL (≈ 5.53 µM) | MIC [11]: 1 µg/mL (≈ 2.77 µM) | MIC [12]: 1.5 µg/mL | MIC [13]: 0.5 µg/mL | MIC [14]: 0.5 µg/mL | Activity [26]: Active | Activity [27]: Active | Activity [28]: Active | Activity [29]: inactive
